In patent US20120149708A1, “MODULATORS OF VIRAL TRANSCRIPTION, AND METHODS AND COMPOSITIONS THEREWITH” (George Mason University, priority 2010, published 2012):
Entries after “also recorded” stand apart in the source; their conditions may differ.

Experiments:
[1] = tested on: HIV-1; assay: Viral inhibition (HIV-1); format: cell-based; settings: versus Cyc202
[2] = tested on: HIV-1 LTR; assay: Luciferase assay of Tat-dependent HIV-1 LTR transcription in TZM-bl cells; format: cell-based; settings: TZM-bl cells transfected with Tat, 50 nm, 48 hrs
Experimental: FIGS. 1 and 2 show screening results of CR8 derivatives on Tat-dependent transcription HIV-1 LTR. […] TZM-bl cells were transfected with 1 ug of Tat and treated the next day with DMSO, or the indicated CR8 derivative compounds at 50 nm. 48 hrs-post drug treatment, luciferase activity of the firefly luciferase was measured with the BrightGlo Luciferase Assay and luminescence was read from a 96 well plate on an EG&G Berthold luminometer. Assays were performed in triplicate, average and standard deviations are shown.
TZM-bl cells were transfected with pc-Tat (0.5 μg) using Attractene reagent (Qiagen) according to the manufacturers' instructions. Twenty-four hours later, cells were treated with DMSO or the indicated compound. Forty-eight hours-post drug treatment, luciferase activity of the firefly luciferase was measured with the BrightGlo Luciferase Assay (Promega).
These cells were brought into contact with 18 Formula I compounds.
Briefly, the addition of Tat protein enables activated transcription of HIV-1 promoter driving luciferase in these cells. Treated cells were assayed at 48 hrs after Tat transfection and drug treatment.

[3] = tested on: TAR microRNA; assay: RNase protection assay for TAR and TAR miRNA in TNF treated ACH2 cells; format: cell-based, HIV-1; settings: CR8#13 50 nm compared to Flavopiridol 50 nm, 48 hrs
Source text: Ten micrograms of total RNA from TNF treated CEM (lane 1) and TNF treated ACH2 cells (lanes 2-6) were hybridized to a radiolabeled TAR 5′ probe and then treated with RNase A. Arrows indicate the probe protected by TAR at 27 nucleotides and the probe protected by a TAR miRNA at approximately 22 nt. Cyc202 concentration at 500 nm, CR8 at 100 nm, CR8#13 at 50 nm, and Flavopiridol at 50 nm were used for these experiments.
Total RNA was extracted from TNF-treated CEM and ACH2 cells follow by drug treatment with Cyc202 (500 nm), CR8 ([…]), CR8#13 (50 nm), and Flavopiridol (50 nm) for 48 hrs using Trizol reagent (Invitrogen). RNase protection assays were performed as previously described (Klase et al, 2007).
RNA polymerase II associated with HIV-1 promoter, however, is phosphorylated on both Ser2 and 5 in the presence of Tat (see Zhou et al, 2004). In order to ascertain whether or not cells treated with CDK inhibitors according to the present invention produce additional TAR derived miRNA, the inevntor utilized RNase protection assays to detect small RNA fragments corresponding to the TAR sequence.
Briefly, a probe complementary to the entire length of the 5′ portion of the TAR stem loop was designed, which would detect the generation of ˜21 nt RNAs from any position within that sequence. […]

[4] = tested on: CIITA, IL-8, CAD, MCL-1, Cyclin D1, and PBX-1; format: cell-based
Experimental: 293T cells were treated with three different concentrations of CR8#13 (20 nm, 50 nm, and 200 nm). Cells were processed 48 hrs-post treatment for RT-PCR. Effector cdk9 genes such as CIITA, IL-8, CAD, MCL-1, Cyclin D1, and PBX-1 were used in the RT-PCR.
For mRNA analysis of cdk9 related genes following drug treatments, total RNA was isolated from cells using Trizol (Invitrogen) according to the manufacturer's protocol. A total of 1 μg of RNA from the RNA fraction was treated with 0.25mg/ml DNase I for 60 min, followed by heat inactivation at 65° C. for 15 min. A total of 1 μg of total RNA was used to generate cDNA with the iScript cDNA Synthesis kit (Bio-Rad) using oligo-dT reverse primers.
A determination whether inhibition cdk9 by compounds of the present invention altered the responsiveness of cdk9 dependent cellular genes, was made by the present inventor by testing the effect of CR8#13 (BJFP1154), of viral transcriptional activity utilizing a known set of cellular and viral genes.

[5] = tested on: HIV-1 LTR-CAT reporter; assay: CAT assay of Tat-mediated transactivation in HCT116 WT and Dicer-/- cells; format: cell-based; settings: HCT116 WT (Dicer) versus Dicer-/-; 48 hrs; Flavopiridol, CR8#13, F07#13 100 nm, 9AA 1000 nm
Experimental: Six hours later, the transfected cells were treated with DMSO, Flavopirodol (100 nm), CR8#13 (100 nm), F07#13 (100 nm), and 9AA (1000 nm). Treated cells were incubated in complete DMEM for 48 hrs at 37° C. Cells were harvested and cell extracts were used for CAT analysis. One tenth the amount of HCT116 Dicer−/−extract compared to HCT116 WT was used for CAT analysis. […] The corresponding bar graphs in A and B show values that represent the percentage of conversion of the [14C] chloramphenicol substrate in the CAT assay.
Various cells lines were transfected with the HIV-1 LTRCAT plasmid and pc-Tat to initiate the LTR transcription, and subsequently subjected to various drug treatments. After 48 hrs, cells were lysed and CAT assays were performed as previously described (Guendel et al, 2009; Van Duyne et al, 2008; Easley et al, 2010).
To evaluate the role on microRNA machinery in inhibition of viral transcription activity, HCT116 colon carcinoma cell lines that either contained a WT Dicer (HCT116 WT) or lacked the Dicer protein (HCT116 Dicer-−/−) were first transfected with the HIV-1 LTR-CAT reporter construct. The HIV-1 LTR transcription was activated with pc-Tat and following incubation for 6 hours was treated with DMSO (negative control), Flavopiridol (positive control), CR8#13, F07#13, or 9AA.
Cells were harvested 48 hrs-post treatment and processed for CAT assays (FIGS. 3A and B). […] Based on this observation the inventors hypothesize that the microRNA machinery, Dicer and Drosha, plays an inhibitory role in HIV-1 transcription.

SMILES | potency relative to Cyc202 (viral inhibition) [1] | inhibition of HIV-1 LTR transcription (luciferase) [2] | levels of TAR and miTAR RNA (RPA) [3] | transcription of cdk9 responsive genes [4] | inhibition of viral transcription (CAT) [5]
CC[C@@H](CO)Nc1nc(NCc2ccc(-c3ccccn3)cc2)c2ncn(C(C)C)c2n1 [CR8] | roughly 25 times |  |  |  | 
CC(C)c1cnn2c(NCc3ccc(-c4ccccn4)cc3)nc(NC[C@H](O)CO)nc12.O=C(O)/C=C/C(=O)O [BJFP1154] |  | greatest transcriptional inhibition; also recorded: significant inhibition of HIV-1 transcription | Higher levels of TAR and miTAR RNA | did not inhibit transcription of genes that are cdk9 responsive | inhibited viral transcription significantly better in cells that contained Dicer
